Converted amounts (≈) assume the structure as drawn.
How the values were obtained:
mPTP = mPTP activity (Ca2+ retention) assay in isolated rat liver mitochondria; format: biochemical; settings: isolated rat liver mitochondria; average value from multiple experiments (n ≥ 2)
Description: Pharmacological inhibition or modulation of the mPTP can be measured in well characterised ‘Ca^2+ retention’ assays performed in isolated mitochondria. In vitro isolated mitochondria rapidly sequester exogenous Ca^2+ until the intramitochondrial Ca^2+ concentration reaches the threshold for mPTP activation. Once the pore is activated, mitochondrial integrity is compromised and the stored Ca^2+ is released. The distribution of Ca^2+ between extra- and intra-mitochondrial compartments can be measured in real time with the use of membrane-impermeant Ca^2+ sensitive fluorescent dyes. Depending on the configuration of the assay, inhibition or modulation of the mPTP either delays the opening of the pore or increases the concentration of Ca^2+ required to induce mPTP opening.
MPTP activity was measured in mitochondria freshly isolated from female Sprague Dawley (250 to 300 gram) rat livers using the following method. Cervical dislocation was performed on the rat. The liver was then perfused in-situ with ˜40 ml cold Dulbecco's Phosphate Buffered Saline (DPBS) prior to dissection and transferred into 30 ml Isolation Buffer (250 mM Sucrose, 10 mM KCl, 1 mM EGTA, 1 mM EDTA, 25 mM HEPES, adjusted to pH 7.5 with 1 M NaOH). Each lobe of the liver was then removed from the buffer, minced using tweezers and a scalpel into ˜5 mm pieces then transferred into a 50 ml Potterton dounce homogenization tube on ice containing 30 ml ice-cold centrifugation buffer (300 mM Trehalose, 25 mM HEPES, 1 mM EGTA, 1 mM EDTA, 10 mM KCl, adjusted to pH 7.5 with 1 M NaOH and supplemented with 0.1% bovine serum albumin (BSA) and complete protease inhibitor cocktail (one tablet of inhibitor per 50 mls of buffer). Homogenisation was carried out using a teflon pestle at 1800 rpm. The slurry was centrifuged at 800 g for 10 min at 4° C., then the supernatant centrifuged at 10,000 g for 10 min. The pellet was washed once with FLIPR assay buffer (75 mM Mannitol, 25 mM Sucrose, 5 mM Potassium Phosphate Monobasic, 20 mM Tris base, 100 mM KCl, 0.1% BSA adjusted to pH 7.4 with 5M HCl) centrifuged again, then resuspended in FLIPR assay buffer to a concentration of 8.8 mg/ml protein.
Tested compounds (10 mM stock in DMSO) were serially diluted in DMSO in half log steps to generate 10 test concentrations (final concentrations in assay 30 μM to 1 nM). An intermediate dilution of 5 μl DMSO samples into 247 μl FLIPR assay buffer was carried out prior to transfer of 5 μl into duplicate wells of a 384 well polypropylene assay plate. Control wells were 0.5% (v/v) DMSO and 5 μM cyclosporin A.
A stock mitochondria/Fluo5N assay solution was prepared in 5.6 ml FLIPR assay buffer (at RT) supplemented with succinate disodium salt (10 mM), rotenone (1 μM), Fluo5N pentapotassium salt (2 μM) and 1 ml mitochondria suspension, then transferred (15 μl) into the assay plate containing test compounds and incubated for 10 min at RT. Assay plates were then transferred to a FLIPR Tetra plate reader (Molecular Devices). Dye fluorescence was then measured every 3 sec for a total of 10 min. After 12 sec, a 2.5 μl bolus of CaCl2 (75 μM) was added from a source plate containing 675 μM CaCl2 in FLIPR assay buffer. IC50 values for tested compounds were calculated using the fluorescence value collected at the 10 min timepoint with % inhibition calculated using the DMSO control and cyclosporin A values as […] respectively.

CYP2D6 = CYP2D6 (Homo sapiens (Human), UniProt P10635); assay: Cytochrome P450 CYP2D6 inhibition in human liver microsomes; format: in vitro ADME; settings: probe dextromethorphan 2 µM (dextrorphan formation); 1 uM test compound, human liver microsomes; average value from two experiments; negative values = no effective inhibition
Sequence of CYP2D6 (P10635 whole entry, canonical isoform): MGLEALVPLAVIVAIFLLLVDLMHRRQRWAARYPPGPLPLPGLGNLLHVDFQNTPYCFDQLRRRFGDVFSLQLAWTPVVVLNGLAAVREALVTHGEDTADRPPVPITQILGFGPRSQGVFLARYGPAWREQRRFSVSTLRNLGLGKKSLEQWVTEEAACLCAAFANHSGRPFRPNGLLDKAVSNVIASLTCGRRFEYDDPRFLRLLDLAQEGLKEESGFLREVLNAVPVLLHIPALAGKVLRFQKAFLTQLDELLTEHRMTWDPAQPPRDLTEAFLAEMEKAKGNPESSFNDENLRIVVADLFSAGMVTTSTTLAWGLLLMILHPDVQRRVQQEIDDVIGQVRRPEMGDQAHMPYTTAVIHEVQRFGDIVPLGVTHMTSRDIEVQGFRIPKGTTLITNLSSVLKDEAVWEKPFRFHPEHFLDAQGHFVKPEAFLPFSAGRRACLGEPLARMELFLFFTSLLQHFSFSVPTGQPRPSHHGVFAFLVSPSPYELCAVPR
Procedure: Studies to assess tested compound mediated inhibition of cytochrome P450 enzyme isoform CYP2D6 were performed using human liver microsomes (BD Gentest) using either a single concentration (1 μM) of test compound or concentration response (0.1, 0.3, 1, 3, 10 and 30 μM) to derive an IC50. Tested compound solutions were prepared from 10 mM stocks in DMSO and diluted to 200 μM in DMSO. Reactions were prepared in a 96 deep well plate by combining 1 μl test compound with 179 μl reaction mixture (100 mM phosphate buffered saline (PBS), 0.2 mg/mL microsomes and 2 μM Dextromethorphan prepared from stocks as detailed below).
The positive control inhibitor, quinidine, was used at a final concentration of 0.5 μM when used at a single concentration. The final concentrations of quinidine used to derive an IC50 were 0, 0.1, 0.3, 1, 3, 10 and 30 μM. Plates were warmed at 37° C. for 15 min before starting reactions with 20 μl 10 mM NADPH solution in PBS and incubated for 20 min at 37° C. The assay is performed in duplicate. Reactions were quenched with 200 μl cold acetonitrile containing internal standards (200 nM labetalol, 200 nM alprazolam and 100 nM tolbutamide). The plate was centrifuged at 4000 rpm for 30 minutes, placed on ice for 20 minutes and then centrifuged at 4000 rpm for 30 minutes again to precipitate protein. 100 μL of the supernatant was transferred to a new plate and diluted with 100 μL pure water before being analysed using UPLC/MS/MS. The products of the transformation for dextromethorphan to dextrorphan was monitored by UPLC-MS/MS. The inhibition of CYP2D6 in human liver microsomes was measured as the percentage decrease in the activity of dextrorphan formation compared to non-inhibited controls (=100% activity). The IC50 value was calculated (test compound concentration which produces 50% inhibition) by using Excel Xlfit.

[1] = PBS and FaSSIF solubility; format: physicochemical; settings: aqueous buffer, kinetic from dmso stock; PBS pH 7.4, 2 hr at 25° C.; read-out: Solubility PBS (pH 7.4)
Procedure: Test compounds were prepared as 10 mM stocks in DMSO and 15 μl samples transferred in duplicate into 1.5 mL glass flat bottom vials (BioTech Solutions). Fasted state simulated intestinal fluid (FaSSIF) or PBS (pH 7.4) was added to each vial to final volume of 500 μl. One PTFE encapsulated stir stick (V&P Scientific) was placed in each vial before sealing with PTFE/SIL plugs (BioTech Solutions). Vials were shaken at 1100 rpm for 2 hr at 25° C. Samples were then filtered through MultiScreen Solvinert filter plates (Millipore) via vacuum filtration. Aliquots of filtrate (5 μl) plus 5 μl DMSO were diluted in 490 μl 50% acetonitrile in water containing internal standard. The filtrate was analysed and quantified against a standard of known concentration using LC-MS/MS. Solubility values of the test compound and control compound were calculated as follows: […]

[2] = Hepatocyte clearance assay, rat; format: in vitro ADME; settings: cryopreserved primary hepatocytes, average value from two experiments, read-out: Rat heps Clint
Procedure: In vitro clearance studies were performed in primary rat and human hepatocytes (BiolVT). Vials of cryopreserved rat or human hepatocytes were thawed in a 37° C. water bath for 2 min. Cells were transferred into thawing medium (Williams' Medium E containing 30% Percoll, 1×GlutaMAX-1, 15 mM HEPES, 5% fetal bovine serum (FBS), 4 μg/ml insulin, 1 μM dexamethasone), centrifuged at 100 g for 10 min then resuspended in culture medium (Leibovitz's L-15 Medium) at a concentration of 0.5×10^6 viable cells/mL (number of viable cells assessed using AO/PI staining). Hepatocytes (198 μL) were transferred into wells of a 96-well non-coated plate and placed in a 37° C. incubator for 10 min. Test compound solutions were prepared from 10 mM stocks in DMSO, diluted to 100 μM in 50% (v/v in water) acetonitrile. Test compound samples (2 μl) were added to each well of hepatocytes and incubated at 37° C. Samples (25 μl) were collected at t=0, 15, 30, […] and 120 min, mixed with 6 volumes (150 μl) of acetonitrile containing internal standard (100 nM alprazolam, 200 nM caffeine and 100 nM tolbutamide), vortexed for 5 min and centrifuged for 45 min at 3220 g. An aliquot of supernatant (100 μL) was diluted with 100 μL ultra-pure water, and the mixture was used for LC/MS/MS analysis. All incubations were performed in duplicate. Peak areas were determined from extracted ion chromatograms. The slope value, k, was determined by linear regression of the natural logarithm of the remaining percentage of the parent drug vs. incubation time curve. The in vitro half-life (in vitro t½) was determined from the slope value: in vitro t½=0.693/k. Conversion of the in vitro t½ (in min) into the in vitro intrinsic clearance (in vitro CLint, in μL/min/1×10^6 cells) was done using the following equation (mean of duplicate determinations):
[formula] • V=incubation volume (0.2 mL) • N=number of hepatocytes per well (0.1×10^6 cells).

Row | SMILES | mPTP Rat liver pIC50 (mPTP) | inhibition at 20 min, 1 µM (CYP2D6) [%] | solubility at 2 h [1] [µM] | hepatocyte CLint at 1 µM [2] [µL/min/1e6 cells]
1 | Cc1c(F)cccc1NC(=O)/C=C/c1ccc2c(c1)NC(=O)C2(C)C [Example 3, (E)-3-(3,3-dimethyl-2-oxoindolin-6-yl)-N-(3-fluoro-2-methylphenyl)acrylamide] | 6.4 | -1.87 | 1.75 (≈ 0.592 µg/mL) | –
2 | Cc1c(F)cccc1NC(=O)/C=C/c1ccc2c(c1)NC(=O)C21CC1 [Example 4, (E)-N-(3-fluoro-2-methylphenyl)-3-(2′-oxospiro[cyclopropane-1,3′-indolin]-6′-yl)acrylamide] | 6.5 | 2.89 | 0.31 (≈ 0.104 µg/mL) | –
3 | Cc1c(Cl)cccc1NC(=O)/C=C/c1ccc2oc(=O)[nH]c2c1 [Example 9, (E)-N-(3-chloro-2-methylphenyl)-3-(2-oxo-2,3-dihydrobenzo[d]oxazol-5-yl)acrylamide] | 7.4 | -2.59 | 0.6 (≈ 0.197 µg/mL) | –
4 | CC(C)c1ccccc1NC(=O)/C=C/c1ccc2oc(=O)[nH]c2c1 [Example 13, (E)-N-(2-isopropylphenyl)-3-(2-oxo-2,3-dihydrobenzo[d]oxazol-5-yl)acrylamide] | 6.0 | 3.84 | 5.3 (≈ 1.71 µg/mL) | –
5 | Cc1cccc(C(C)C)c1NC(=O)/C=C/c1ccc2oc(=O)[nH]c2c1 [Example 14, (E)-N-(2-isopropyl-6-methylphenyl)-3-(2-oxo-2,3-dihydrobenzo[d]oxazol-5-yl)acrylamide] | 6.5 | -0.52 | 16 (≈ 5.38 µg/mL) | –
6 | CC(C)c1ccc(Cl)cc1NC(=O)/C=C/c1ccc2oc(=O)[nH]c2c1 [Example 15, (E)-N-(5-chloro-2-isopropylphenyl)-3-(2-oxo-2,3-dihydrobenzo[d]oxazol-5-yl)acrylamide] | 6.9 | -0.28 | 0.03 (≈ 0.0107 µg/mL) | –
7 | Cc1ccc(F)cc1NC(=O)/C=C/c1ccc2oc(=O)[nH]c2c1 [Example 17, (E)-N-(5-fluoro-2-methylphenyl)-3-(2-oxo-2,3-dihydrobenzo[d]oxazol-5-yl)acrylamide] | – | 1.91 | 0.15 (≈ 0.0468 µg/mL) | –
8 | O=C(/C=C/c1ccc2c(C(F)(F)F)n[nH]c2c1)NC1CCc2ccccc21 (stereo not shown) [Example 28, (E)-N-(2,3-dihydro-1H-inden-1-yl)-3-(3-(trifluoromethyl)-1H-indazol-6-yl) acrylamide] | – | 8.27 | – | 73.6
9 | Cc1n[nH]c2cc(/C=C/C(=O)NC3CCc4cc(F)ccc43)ccc12 (stereo not shown) [Example 40, (E)-N-(5-fluoro-2,3-dihydro-1H-inden-1-yl)-3-(3-methyl-1H-indazol-6-yl)acrylamide] | 6.6 | 6.65 | – | –
10 | Cc1cc(NC(=O)/C=C/c2ccc3c(C)n[nH]c3c2)ccc1F [Example 41, (E)-N-(4-fluoro-3-methylphenyl)-3-(3-methyl-1H-indazol-6-yl)acrylamide] | 7.1 | 1.2 | – | –
11 | Cc1ccc(NC(=O)/C=C/c2ccc3c(C)n[nH]c3c2)cc1F [Example 42, (E)-N-(3-fluoro-4-methylphenyl)-3-(3-methyl-1H-indazol-6-yl)acrylamide] | 6.1 | -1.97 | – | –
12 | CC1Cc2ccccc2C1NC(=O)/C=C/c1ccc2c(C#N)n[nH]c2c1 (stereo not shown) [Example 44, (E)-3-(3-cyano-1H-indazol-6-yl)-N-(2-methyl-2,3-dihydro-1H-inden-1-yl)acrylamide] | 7.1 | 8.94 | – | –
13 | Cc1c(Cl)cccc1N(C)C(=O)/C=C/c1ccc2oc(=O)[nH]c2c1 [Example 48, (E)-N-(3-chloro-2-methylphenyl)-N-methyl-3-(2-oxo-2,3-dihydrobenzo[d]oxazol-5-yl)acrylamide] | 5.9 | 6.34 | – | –
14 | CC1CCCC1NC(=O)/C=C/c1ccc2oc(=O)[nH]c2c1 (stereo not shown) [Example 49, (E)-N-(2-methylcyclopentyl)-3-(2-oxo-2,3-dihydrobenzo[d]oxazol-5-yl)acrylamide] | 5.8 | 4.52 | – | –
